Data taken from PubChem BioAssay AID248 (DTP/NCI, 2004).
Inconclusive results and toxic doses are left out. Rule as the data show it: active = T/C of 150% or more; inactive = T/C below 125%.

Test system: L1210 leukemia ip in BDF1 mice, survival T/C
Test: NCI In Vivo Anticancer Drug Screen. Data for tumor model L1210 Leukemia (intraperitoneal) in B6D2F1 (BDF1) mice
Settings: endpoint: mean survival time, higher = longer survival
In short: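 Ratio derived from survival: compound-dosed mice over vehicle-dosed mice, all bearing a transplantable tumor.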

[1] = dose: 100.0 mg/kg/injection, schedule: Q01DX009 (ip), vehicle: saline
[2] = dose: 200.0 mg/kg/injection, schedule: Q01DX009 (ip), vehicle: saline
[3] = dose: 400.0 mg/kg/injection, schedule: Q01DX009 (ip), vehicle: saline
[4] = dose: 100.0 mg/kg/injection, schedule: Q01DX009 (ip), vehicle: saline with Tween-80
[5] = dose: 200.0 mg/kg/injection, schedule: Q01DX009 (ip), vehicle: saline with Tween-80
[6] = dose: 100.0 mg/kg/injection, schedule: Q04DX002 (ip), vehicle: Klucel (hydroxypropylcellulose) (HPC)
[7] = dose: 200.0 mg/kg/injection, schedule: Q04DX002 (ip), vehicle: Klucel (hydroxypropylcellulose) (HPC)
[8] = dose: 400.0 mg/kg/injection, schedule: Q04DX002 (ip), vehicle: Klucel (hydroxypropylcellulose) (HPC)
[9] = dose: 100.0 mg/kg/injection, schedule: Q01DX009 (ip), vehicle: Klucel (hydroxypropylcellulose) (HPC)
[10] = dose: 100.0 mg/kg/injection, schedule: Q04DX003 (ip), vehicle: Klucel (hydroxypropylcellulose) (HPC)
[11] = dose: 200.0 mg/kg/injection, schedule: Q01DX009 (ip), vehicle: Klucel (hydroxypropylcellulose) (HPC)
[12] = dose: 200.0 mg/kg/injection, schedule: Q04DX003 (ip), vehicle: Klucel (hydroxypropylcellulose) (HPC)
[13] = dose: 400.0 mg/kg/injection, schedule: Q01DX009 (ip), vehicle: Klucel (hydroxypropylcellulose) (HPC)
[14] = dose: 400.0 mg/kg/injection, schedule: Q04DX003 (ip), vehicle: Klucel (hydroxypropylcellulose) (HPC)
[15] = dose: 100.0 mg/kg/injection, schedule: Q04DX003 (ip), vehicle: saline
[16] = dose: 200.0 mg/kg/injection, schedule: Q04DX003 (ip), vehicle: saline
[17] = dose: 400.0 mg/kg/injection, schedule: Q04DX003 (ip), vehicle: saline

Measured: T/C

O=[N+]([O-])c1ccc(S(=O)(=O)O)c([N+](=O)[O-])c1.[Ag]
inactive: dose: 3.12 mg/kg/injection, schedule: Q01DX009 (ip), vehicle: DMSO 95 % of control | dose: 6.25 mg/kg/injection, schedule: Q01DX009 (ip), vehicle: DMSO 97 % of control | dose: 12.5 mg/kg/injection, schedule: Q01DX009 (ip), vehicle: DMSO 95 % of control | dose: 12.5 mg/kg/injection, schedule: Q01DX009 (ip), vehicle: other 93 % of control | dose: 12.5 mg/kg/injection, schedule: Q04DX003 (ip), vehicle: other 104 % of control | dose: 25.0 mg/kg/injection, schedule: Q04DX003 (ip), vehicle: other 98 % of control | dose: 50.0 mg/kg/injection, schedule: Q04DX003 (ip), vehicle: other 103 % of control

NC(CCC(=O)Nc1cccc2ccccc12)C(=O)O (configuration not stated)
inactive: dose: 100.0 mg/kg/injection, schedule: Q04DX003 (ip), vehicle: saline with Tween-80 105 % of control | dose: 200.0 mg/kg/injection, schedule: Q04DX003 (ip), vehicle: saline with Tween-80 100 % of control | dose: 400.0 mg/kg/injection, schedule: Q04DX003 (ip), vehicle: saline with Tween-80 106 % of control

CCOC(=O)CCCNc1ccccc1C(=O)OC
inactive: dose: 100.0 mg/kg/injection, schedule: Q01DX001 (ip), vehicle: carboxymethylcellulose (CMC) 110 % of control | dose: 200.0 mg/kg/injection, schedule: Q01DX001 (ip), vehicle: carboxymethylcellulose (CMC) 107 % of control | dose: 400.0 mg/kg/injection, schedule: Q01DX001 (ip), vehicle: carboxymethylcellulose (CMC) 107 % of control

CCN(CC)CC(=O)NCC(C)(CCN1CCOCC1)c1cccc2ccccc12 (configuration not stated)
inactive: [1] 105 % of control | [2] 105 % of control | [3] 110 % of control

NCC1CCCO1 (configuration not stated)
inactive: dose: 25.0 mg/kg/injection, schedule: Q01DX009 (ip), vehicle: saline 98 % of control | dose: 50.0 mg/kg/injection, schedule: Q01DX009 (ip), vehicle: saline 95 % of control | [1] 101 % of control

COc1cccc(/C=C2/COC/C(=C\c3cccc(OC)c3OC)C2=O)c1OC
inactive: [1] 91 % of control | [2] 97 % of control

O=C(N/C=C/NC(=O)c1ccccc1)c1ccccc1
inactive: dose: 100.0 mg/kg/injection, schedule: Q01DX001 (ip), vehicle: Klucel (hydroxypropylcellulose) (HPC) 104 % of control | dose: 200.0 mg/kg/injection, schedule: Q01DX001 (ip), vehicle: Klucel (hydroxypropylcellulose) (HPC) 111 % of control | dose: 400.0 mg/kg/injection, schedule: Q01DX001 (ip), vehicle: Klucel (hydroxypropylcellulose) (HPC) 104 % of control

Cc1ccc(S(=O)(=O)NC(CSCc2ccccc2)C(=O)O)cc1 (configuration not stated)
inactive: [4] 92 % of control | [5] 101 % of control

COC(OC)c1[nH]c(=S)[nH]c(=O)c1Cc1ccc(Br)cc1
inactive: [6] 97 % of control | [7] 94 % of control | [8] 105 % of control

COc1ccc(Oc2cccc3c2CCN(C)C3)cc1
inactive: dose: 12.5 mg/kg/injection, schedule: Q04DX002 (ip), vehicle: Klucel (hydroxypropylcellulose) (HPC) 102 % of control | dose: 25.0 mg/kg/injection, schedule: Q04DX002 (ip), vehicle: Klucel (hydroxypropylcellulose) (HPC) 115 % of control | dose: 50.0 mg/kg/injection, schedule: Q04DX002 (ip), vehicle: Klucel (hydroxypropylcellulose) (HPC) 97 % of control

O=C(O)c1ccccc1C(=O)Nc1cc(Cl)ccc1Cl
inactive: dose: 50.0 mg/kg/injection, schedule: Q01DX009 (ip), vehicle: Klucel (hydroxypropylcellulose) (HPC) 94 % of control | [9] 98 % of control | [10] 98 % of control | [11] 93 % of control | [12] 89 % of control

NC/C=N/N=C(N)N
inactive: dose: 15.0 mg/kg/injection, schedule: Q01DX Z (ip), vehicle: saline 97 % of control | dose: 30.0 mg/kg/injection, schedule: Q01DX Z (ip), vehicle: saline 96 % of control | dose: 60.0 mg/kg/injection, schedule: Q01DX Z (ip), vehicle: saline 94 % of control | dose: 120.0 mg/kg/injection, schedule: Q01DX Z (ip), vehicle: saline 87 % of control | dose: 120.0 mg/kg/injection, schedule: Q01DX Z (oral), vehicle: saline 101 % of control | dose: 240.0 mg/kg/injection, schedule: Q01DX Z (oral), vehicle: saline 101 % of control | dose: 480.0 mg/kg/injection, schedule: Q01DX Z (oral), vehicle: saline 103 % of control | dose: 960.0 mg/kg/injection, schedule: Q01DX Z (oral), vehicle: saline 98 % of control

CCCCCCCS(=O)(=O)c1nc2ccccc2[nH]1
inactive: [6] 95 % of control | [7] 101 % of control | [8] 104 % of control

O=C(Sc1ccccc1-n1cccc1)c1ccccc1
inactive: [4] 109 % of control | [5] 100 % of control | dose: 400.0 mg/kg/injection, schedule: Q01DX009 (ip), vehicle: saline with Tween-80 102 % of control

CSc1ccc(NC(=O)/C=C/c2ccccc2)cc1
inactive: [9] 106 % of control | [11] 112 % of control | [13] 102 % of control

O=C(O)c1cc(Br)cc(I)c1I
inactive: dose: 100.0 mg/kg/injection, schedule: Q04DX002 (ip), vehicle: saline with Tween-80 105 % of control | dose: 200.0 mg/kg/injection, schedule: Q04DX002 (ip), vehicle: saline with Tween-80 105 % of control | dose: 400.0 mg/kg/injection, schedule: Q04DX002 (ip), vehicle: saline with Tween-80 110 % of control

O=C(OC(CC[P+](c1ccccc1)(c1ccccc1)c1ccccc1)(C(=O)c1ccccc1)c1ccccc1)c1ccccc1 (configuration not stated)
inactive: dose: 3.0 mg/kg/injection, schedule: Q04DX003 (ip), vehicle: saline 98 % of control | dose: 6.0 mg/kg/injection, schedule: Q04DX003 (ip), vehicle: saline 103 % of control | dose: 12.0 mg/kg/injection, schedule: Q04DX003 (ip), vehicle: saline 94 % of control | dose: 15.0 mg/kg/injection, schedule: Q01DX001 (ip), vehicle: carboxymethylcellulose (CMC) 90 % of control | dose: 30.0 mg/kg/injection, schedule: Q01DX001 (ip), vehicle: carboxymethylcellulose (CMC) 98 % of control | dose: 60.0 mg/kg/injection, schedule: Q01DX001 (ip), vehicle: carboxymethylcellulose (CMC) 95 % of control | dose: 75.0 mg/kg/injection, schedule: Q01DX001 (ip), vehicle: carboxymethylcellulose (CMC) 88 % of control

CCN(CC)c1ccc2nc3ccc(N(CC)CC)cc3[n+](-c3ccccc3)c2c1
inactive: dose: 3.0 mg/kg/injection, schedule: Q01DX009 (ip), vehicle: saline 111 % of control | dose: 6.0 mg/kg/injection, schedule: Q01DX009 (ip), vehicle: saline 115 % of control

O=S(=O)(OCC1CO1)c1ccc(F)cc1 (configuration not stated)
inactive: dose: 100.0 mg/kg/injection, schedule: Q01DX007 (ip), vehicle: Klucel (hydroxypropylcellulose) (HPC) 103 % of control | [10] 95 % of control | dose: 200.0 mg/kg/injection, schedule: Q01DX007 (ip), vehicle: Klucel (hydroxypropylcellulose) (HPC) 114 % of control | [12] 104 % of control | dose: 400.0 mg/kg/injection, schedule: Q01DX007 (ip), vehicle: Klucel (hydroxypropylcellulose) (HPC) 103 % of control | [14] 98 % of control

C=C(c1ccccc1)[P+](c1ccccc1)(c1ccccc1)c1ccccc1
inactive: dose: 15.0 mg/kg/injection, schedule: Q01DX001 (ip), vehicle: saline 109 % of control

CCC(=O)Nc1ccccc1
inactive: [9] 101 % of control | [10] 100 % of control | [11] 95 % of control | [12] 104 % of control | [13] 108 % of control | [14] 114 % of control

CNC(=S)Nc1ncn[nH]1
inactive: [15] 94 % of control | [16] 100 % of control | [17] 86 % of control

O=C(O)c1ccc(CBr)c(CBr)c1
inactive: dose: 6.25 mg/kg/injection, schedule: Q04DX003 (ip), vehicle: saline with Tween-80 93 % of control | dose: 12.5 mg/kg/injection, schedule: Q04DX003 (ip), vehicle: saline with Tween-80 94 % of control

CCCCCCNC(=O)NC
inactive: [9] 97 % of control | [11] 103 % of control

COc1ccc(/C=C2\CCC3C(CCCC34OCCO4)C2=O)cc1 (configuration not stated)
inactive: [1] 88 % of control | [15] 101 % of control | [2] 101 % of control | [16] 97 % of control | [3] 104 % of control | [17] 99 % of control
